These results are taken from paper PMC5062169, “Structural basis for ligand recognition by a Cache chemosensory domain that mediates carboxylate sensing in Pseudomonas syringae” (Scientific Reports, 2016).

Peptide text beside a SMILES is read from it.

The target in the first assay is T1, PscD (PscD-SD, Cache sensor domain of chemoreceptor PscD) (Pseudomonas syringae, UniProt A0ABY1U976).
T1 construct: gene CFBP3846_03581; sensor domain, Gln31-Trp188, N-terminal His6 tag
T1 sequence (A0ABY1U976 31-188): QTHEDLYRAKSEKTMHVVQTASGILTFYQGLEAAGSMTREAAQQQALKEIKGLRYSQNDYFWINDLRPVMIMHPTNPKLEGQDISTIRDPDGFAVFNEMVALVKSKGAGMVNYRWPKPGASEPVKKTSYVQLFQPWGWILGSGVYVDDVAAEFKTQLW
More on the design: fluorescence thermal shift (SYPRO Orange) screen of Biolog PM1/PM2 compounds, delta Tm. The settings on record: Biolog plate compound, exact concentration unknown; binder. An excerpt:
(§1) We used high-throughput fluorescence thermal shift (FTS) assays (as described previously[16]) to screen for potential ligands of PscD-SD. FTS assays are based on the principle that ligands stabilise proteins upon binding, causing an increase in the melting temperature of the protein[22][23]. Binding can therefore be rapidly screened by measuring the difference in the temperature midpoint of unfolding (ΔTm) of a protein in the presence and absence of potential ligands. In our FTS assays, the Tm was measured by monitoring an increase in fluorescence of a dye with affinity for hydrophobic parts of the protein (i.e. SYPRO Orange), which are exposed as the protein unfolds. We screened the recombinant PscD-SD protein in FTS assays against the compounds in Biolog Phenotype Microarray (PM) plates 1 and 2 (Supplementary Tables 1 and 2). Each plate contains 95 different compounds (e.g., organic acids, sugars) and a water (no ligand) control. For use in FTS assays, the compounds were resuspended directly in water, thus generating a library of biologically relevant potential ligands. […] Fluorescent thermal shift (FTS) assays were conducted as reported previously. PscD-SD was screened for potential ligands against Biolog Phenotype Microarray (PM) plates 1 and 2 (Biolog, Hayward, CA, USA). For initial qualitative, high-throughput screening, ligands were prepared by dissolving Biolog PM compounds in 50 μL of water (each) to obtain a final concentration of approximately 10–20 mM (the exact concentrations vary from well-to-well). Screens were set up in Lightcycler 480 multiwell plates (Roche Diagnostics, Auckland, NZ) with 20 μM protein, a 5x concentration of SYPRO orange (Life Technologies, Carlsbad, CA, USA) and 5 μL of the test compound (i.e. resuspended Biolog ligands) added to each well. The plate was covered with Lightcycler 480 sealing film (Roche Diagnostics) and fluorescence signal was monitored as the temperature was increased from 20 °C to 80 °C at a rate of 1.2 °C.min^−1 in a Lightcycler 480 (Roche Diagnostics). Initial hits were further tested using known concentrations (0, 1, 2, 5 and 10 mM) of each potential ligand to confirm binding. The ligands were prepared as 10x stocks, 2 μL were added to each well, and the experiments were conducted as described above. The first derivative values (−dF/dt) from the raw fluorescence data were used to determine the melting temperature (Tm). Three biological replicates (from independently cultured and purified batches of protein) were performed for each plate screened.
On to `OC[C@H]1O[C@@H]2O[C@H]3[C@H](O)[C@@H](O)[C@@H](O[C@H]4[C@H](O)[C@@H](O)[C@@H](O[C@H]5[C@H](O)[C@@H](O)[C@@H](O[C@H]6[C@H](O)[C@@H](O)[C@@H](O[C@H]7[C@H](O)[C@@H](O)[C@@H](O[C@H]8[C@H](O)[C@@H](O)[C@@H](O[C@H]1[C@H](O)[C@H]2O)O[C@@H]8CO)O[C@@H]7CO)O[C@@H]6CO)O[C@@H]5CO)O[C@@H]4CO)O[C@@H]3CO` [β-Cyclodextrin], for which the “Δ Tm” value worked out at 0.45 ± 0.0 °C.

Take `OC[C@H]1O[C@@H](O)[C@H](O)[C@H](O)[C@@H]1O` [β-D-Allose]: the “Δ Tm” value is 0.08 ± 0.00 °C.

In the case of `CC(O)CC(=O)O` (stereo not drawn) [β-Hydroxy Butyric Acid], the “Δ Tm” value is 0.03 ± 0.05 °C.

For `CO[C@@H]1OC[C@@H](O)[C@H](O)[C@H]1O` [β-Methyl-D-Xyloside], the “Δ Tm” value was 0.10 ± 0.11 °C.

For the compound `OC[C@H]1O[C@@H]2O[C@H]3[C@H](O)[C@@H](O)[C@@H](O[C@H]4[C@H](O)[C@@H](O)[C@@H](O[C@H]5[C@H](O)[C@@H](O)[C@@H](O[C@H]6[C@H](O)[C@@H](O)[C@@H](O[C@H]7[C@H](O)[C@@H](O)[C@@H](O[C@H]8[C@H](O)[C@@H](O)[C@@H](O[C@H]9[C@H](O)[C@@H](O)[C@@H](O[C@H]1[C@H](O)[C@H]2O)O[C@@H]9CO)O[C@@H]8CO)O[C@@H]7CO)O[C@@H]6CO)O[C@@H]5CO)O[C@@H]4CO)O[C@@H]3CO` [γ-Cyclodextrin], the “Δ Tm” value worked out at 0.28 ± 0.07 °C.

`O=C(O)CCCO` [γ-Hydroxy Butyric Acid]: the “Δ Tm” value amounted to 0.08 ± 0.00 °C.

Consider `NCCCC(=O)O` [γ-amino butyric acid], for which the “Δ Tm” value amounted to 0.05 ± 0.03 °C.

The next assay deals with T1, PscD (PscD-SD, Cache sensor domain of chemoreceptor PscD). The settings on record: Biolog plate compound, exact concentration unknown; binder. This is another data set of the same source.
Text: as §1
`OC[C@H]1O[C@@H](O[C@@H]2[C@@H](CO)OC(O)(CO)[C@H]2O)[C@H](O)[C@@H](O)[C@H]1O` (mixture of isomers) [Lactulose]: the “Δ Tm” value is 0.20 ± 0.03 °C.

Consider `CC(O)CO` (stereo not drawn) [1,2-Propanediol], for which the “Δ Tm” value amounted to 0.12 ± 0.05 °C.

Consider `NCCO` [2-Aminoethanol], for which the “Δ Tm” value was found to be 0.15 ± 0.05 °C.

On to `Nc1ncnc2c1ncn2[C@H]1C[C@H](O)[C@@H](CO)O1` [2-Deoxy-Adenosine], for which the “Δ Tm” value came to 0.17 ± 0.05 °C.

As for `CC(=O)CC(=O)O` [Acetoacetic Acid], the “Δ Tm” value came to 0.63 ± 0.05 °C.

For `Nc1ncnc2c1ncn2[C@@H]1O[C@H](CO)[C@@H](O)[C@H]1O` [Adenosine], the “Δ Tm” value came to 0.15 ± 0.05 °C.

In the case of `OC[C@@H](O)[C@@H](O)[C@@H](O)CO` [Adonitol], the “Δ Tm” value came out at 0.12 ± 0.03 °C.

With `O=C(O)CC(Br)C(=O)O` (stereo not drawn) [Bromo Succinic Acid], the “Δ Tm” value turned out to be 0.05 ± 0.10 °C.

Regarding `C[C@@H](N)C(=O)O` [D-Alanine], the “Δ Tm” value is 0.12 ± 0.03 °C.

On to `O=C(CO)[C@@H](O)[C@H](O)[C@H](O)CO` [D-Fructose], for which the “Δ Tm” value is 0.17 ± 0.05 °C.

Consider `O=C[C@H](O)[C@@H](O)[C@@H](O)[C@H](O)CO` [D-Galactose], for which the “Δ Tm” value was determined as 0.17 ± 0.02 °C.

Consider `O=C(O)[C@H](O)[C@@H](O)[C@H](O)[C@H](O)CO` [D-Gluconic Acid], for which the “Δ Tm” value was 0.17 ± 0.02 °C.

Take `N[C@@H](C(=O)O)[C@@H](O)[C@H](O)[C@H](O)CO` [D-Glucosaminic Acid]: the “Δ Tm” value was determined as 0.10 ± 0.05 °C.

Consider `O=P(O)(O)O[C@H]1O[C@H](CO)[C@@H](O)[C@H](O)[C@H]1O` [D-Glucose-1-Phosphate], for which the “Δ Tm” value is 0.10 ± 0.05 °C.

With `O=C(O)C[C@@H](O)C(=O)O` [D-Malic Acid], the “Δ Tm” value was 0.17 ± 0.05 °C.

Turning to `OC[C@@H](O)[C@@H](O)[C@H](O)[C@H](O)CO` [D-Mannitol], the “Δ Tm” value was 0.17 ±0.05 °C.

Turning to `OC[C@H]1OC(O)[C@@H](O)[C@@H](O)[C@@H]1O` (stereo partly drawn) [D-Mannose], the “Δ Tm” value was found to be 0.17 ± 0.05 °C.

Consider `O[C@@H]1[C@H](O)[C@H](O)CO[C@H]1O` [D-Ribose], for which the “Δ Tm” value was 0.12 ±0.05 °C.

Consider `N[C@H](CO)C(=O)O` [D-Serine], for which the “Δ Tm” value was found to be 0.00 ± 0.00 °C.

Take `OC[C@@H](O)[C@@H](O)[C@H](O)[C@@H](O)CO` [D-Sorbitol]: the “Δ Tm” value is 0.05 ± 0.07 °C.

As to `O=CO` [Formic Acid], the “Δ Tm” value was 0.20 ±0.03 °C.

For `NC(=O)[C@H]1O[C@@H](O)[C@H](O)[C@@H](O)[C@@H]1O` [Glucuronamide], the “Δ Tm” value is 0.17 ± 0.06 °C.

For `OCC(O)CO` [Glycerol], the “Δ Tm” value was 0.10 ± 0.05 °C.

Take `NCC(=O)N[C@@H](CC(=O)O)C(=O)O` [Glycyl-L-Aspartic Acid] (H-Gly-Asp-OH): the “Δ Tm” value came out at 0.00 ± 0.00 °C.

Turning to `NCC(=O)N[C@@H](CCC(=O)O)C(=O)O` [Glycyl-L-Glutamic Acid] (H-Gly-Glu-OH), the “Δ Tm” value was 0.00 ± 0.00 °C.

As to `NCC(=O)N1CCC[C@H]1C(=O)O` [Glycyl-L-Proline] (H-Gly-Pro-OH), the “Δ Tm” value stood at 0.00 ± 0.00 °C.

On to `O=c1[nH]cnc2c1ncn2[C@@H]1O[C@H](CO)[C@@H](O)[C@H]1O` [Inosine], for which the “Δ Tm” value came out at 0.15 ± 0.05 °C.

Regarding `C[C@H](N)C(=O)O` [L-Alanine], the “Δ Tm” value amounted to 0.10 ± 0.03 °C.

As for `C[C@H](N)C(=O)NCC(=O)O` [L-Alanyl-Glycine] (H-Ala-Gly-OH), the “Δ Tm” value turned out to be 0.07 ± 0.08 °C.

As for `O[C@@H]1[C@@H](O)[C@@H](O)CO[C@H]1O` [L-Arabinose], the “Δ Tm” value came to 0.05 ± 0.07 °C.

Take `NC(=O)C[C@H](N)C(=O)O` [L-Asparagine]: the “Δ Tm” value turned out to be 0.00 ± 0.00 °C.

As for `N[C@@H](CC(=O)O)C(=O)O` [L-Aspartic Acid], the “Δ Tm” value was determined as 0.17 ± 0.05 °C.

For `C[C@H](O)[C@@H](O)[C@@H](O)[C@H](O)C=O` [L-Fucose], the “Δ Tm” value stood at 0.12 ± 0.05 °C.

Take `NC(=O)CC[C@H](N)C(=O)O` [L-Glutamine]: the “Δ Tm” value is 0.00 ± 0.00 °C.

As to `C[C@H](O)C(=O)O` [L-Lactic Acid], the “Δ Tm” value worked out at 0.12 ±0.03 °C.

`O=C[C@H](O)[C@H](O)[C@@H](O)CO` [L-Lyxose]: the “Δ Tm” value was determined as 0.28 ± 0.05 °C.

With `O=C(O)[C@@H]1CCCN1` [L-Proline], the “Δ Tm” value was 0.07 ± 0.04 °C.

As to `N[C@@H](CO)C(=O)O` [L-Serine], the “Δ Tm” value was 0.10 ± 0.05 °C.

`C[C@@H](O)[C@H](N)C(=O)O` [L-Threonine]: the “Δ Tm” value worked out at 0.12 ± 0.05 °C.

With `N[C@@H](CCC(=O)O)C(=O)O` [L-glutamic acid], the “Δ Tm” value stood at 0.15 ±0.05 °C.

For the compound `OC[C@H]1O[C@H](O[C@H]2[C@H](O)[C@@H](O)[C@H](O)O[C@@H]2CO)[C@H](O)[C@@H](O)[C@@H]1O` [Maltose], the “Δ Tm” value stood at 0.20 ± 0.03 °C.

For the compound `COC(=O)C(C)=O` [Methyl Pyruvate], the “Δ Tm” value stood at 0.48 ± 0.13 °C.

With `COC(=O)CCC(=O)O` [Mono Methyl Succinate], the “Δ Tm” value stood at 0.12 ± 0.03 °C.

Regarding `O=C(O)[C@@H](O)[C@H](O)[C@H](O)[C@@H](O)C(=O)O` [Mucic Acid], the “Δ Tm” value stood at 0.07 ± 0.04 °C.

As for `CC(=O)N[C@@H]1[C@@H](O)[C@H](O)[C@@H](CO)O[C@@H]1O` [N-Acetyl-D-Glucosamine], the “Δ Tm” value amounted to 0.10 ± 0.05 °C.

On to `CC(=O)N[C@H]1[C@@H](O)[C@H](O)[C@@H](CO)O[C@H]1O` [N-Acetyl-β-D-Mannosamine], for which the “Δ Tm” value came out at 0.07 ± 0.04 °C.

For the compound `NCCc1ccccc1` [Phenylethyl-amine], the “Δ Tm” value was 0.17 ± 0.05 °C.

Consider `O=C(O)CCC(=O)O` [Succinic Acid], for which the “Δ Tm” value was 0.10 ± 0.03 °C.

For `OC[C@H]1O[C@@](CO)(O[C@H]2O[C@H](CO)[C@@H](O)[C@H](O)[C@H]2O)[C@@H](O)[C@@H]1O` [Sucrose], the “Δ Tm” value was 0.17 ± 0.05 °C.

For `Cc1cn([C@H]2C[C@H](O)[C@@H](CO)O2)c(=O)[nH]c1=O` [Thymidine], the “Δ Tm” value came out at 0.15 ± 0.05 °C.

With `O=C(O)CC(CC(=O)O)C(=O)O` [Tricarballylic Acid], the “Δ Tm” value was -0.03 ± 0.05 °C.

As to `NCCc1ccc(O)cc1` [Tyramine], the “Δ Tm” value turned out to be 0.12 ± 0.03 °C.

For the compound `O=c1ccn([C@@H]2O[C@H](CO)[C@@H](O)[C@H]2O)c(=O)[nH]1` [Uridine], the “Δ Tm” value is 0.15 ± 0.05 °C.
